# Reference: US11286278B2, “DPEP-1 binding agents and methods of use” (Arch Biopartners, Inc., priority 2018, dated 2022)
# Ends that are not written are not given here.
# Target: T1, human DPEP3 (Homo sapiens, UniProt Q9H4B8)
# T1 construct: expressed in transfected cells; host or cells: Cos-1
# T1 sequence (Q9H4B8 36-463): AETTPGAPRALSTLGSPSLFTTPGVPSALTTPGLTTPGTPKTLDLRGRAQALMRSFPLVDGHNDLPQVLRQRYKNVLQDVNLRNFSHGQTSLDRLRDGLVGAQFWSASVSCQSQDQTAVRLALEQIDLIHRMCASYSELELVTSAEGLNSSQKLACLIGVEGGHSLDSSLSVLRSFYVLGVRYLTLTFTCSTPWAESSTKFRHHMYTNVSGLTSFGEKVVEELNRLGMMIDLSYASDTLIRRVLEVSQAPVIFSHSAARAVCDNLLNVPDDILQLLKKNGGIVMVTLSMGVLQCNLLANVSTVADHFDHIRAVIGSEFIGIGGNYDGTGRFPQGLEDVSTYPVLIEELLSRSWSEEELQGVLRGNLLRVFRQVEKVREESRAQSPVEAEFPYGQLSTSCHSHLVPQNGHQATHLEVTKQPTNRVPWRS
# Assay: Immunofluorescence binding to Cos-1 cells transfected with human DPEP3
# Conditions: Alexa-488 conjugate
# Experimental: Cos-1 cells were transiently transfected with either 3 μg of human DPEP-1, DPEP2, or DPEP3 gene using Lipofectamine 2000 (Invitrogen) reagent in OptiMEM medium. 24 hours after transfection, DPEP-1, DPEP2, or DPEP3 expressing cells were re-seeded on collagen coated (neutralized) wells in 24 well plates and allowed to grow for 24 hours at 37° C. […] Cells were blocked with FBS/NBSA/Tween in PBS for 30 minutes on ice. Cells were then washed with PBS and incubated with LSALT or GFE-1, conjugated with Alexa-488 (green). After incubation, cells were washed with PBS and stained with DAPI for 5 minutes on ice. Cells were then washed with PBS and fixed using 4% paraformaldehyde and immunofluorescence microscopy was performed to assess binding. Representative photomicrographs are shown for each experimental condition (n=3) in FIG. 6A. Proteins from DPEP-1, DPEP2 and DPEP3 transfected cells were isolated after 48 hours using octyl-glucoside/RIPA lysis buffer and western blot analysis was performed to assess DPEP-1, DPEP2 and DPEP3 protein expression using specific antibodies; DPEP-1 antibody (Sigma), DPEP2 (Abcam) and DPEP3 (Santacruz). Blots were stripped and reprobed with an anti-β-actin.
substance,measurement,value
H-LSALTPSPSWLKYKAL [LSALT],binding to human DPEP3 transfected Cos-1 cells,does not Bind
